Read-outs that look alike come from different tables or passages of the source.
Experiments:
[1] = In vitro liver microsomal metabolism (mouse); type: in vitro ADME; conditions: for half-life / CLint scaled: mouse liver microsomes; for half-life: NADPH, 37° C., read-out: T1/2 in liver microsomes; for CLint scaled: calculated from elimination half life, read-out: intrinsic clearance (CLint)
Experimental: (§1) In addition, in vitro liver microsomal metabolism of the compounds of the present invention was also tested. The test compound was co-incubated with NADPH and mouse or human liver microsomes in a 37° C. water bath pot, a reaction was initiated by adding the test compound. […] was taken at different time points (0, 10, 20, 40 and 60 minutes) and transferred to acetonitrile containing an internal standard. After proteins were precipitated, the supernatant was obtained by centrifugation. The test compound in the supernatant was analyzed by the LC-MS/MS method. The intrinsic clearance in vitro was calculated according to the elimination half life of the test compound in the incubation system. Midazolam was subjected to parallel incubation as a positive control. […] Tests of the other compounds of the present invention also had similar results.

[2] = In vitro liver microsomal metabolism (human); type: in vitro ADME; conditions: human liver microsomes; for half-life: NADPH, 37° C., read-out: T1/2 in liver microsomes; for CLint scaled: calculated from elimination half life, read-out: intrinsic clearance (CLint)
Experimental: as §1

[3] = Pharmacokinetic properties in CD-1 mouse; type: in vivo; conditions: both sexes, plasma; for AUC(0-t): read-out: AUClast (area under the curve); for half-life: read-out: Terminal t1/2 (half life) (converted)
Experimental: Experiment animals: CD-1 mouse, males and females; body weight: 20-25 g;
Route of administration: oral/intravenous. […]
Sample collection: blood samples were collected at the following time points: 5 minutes, 15 minutes, 30 minutes, 1 hours, 2 hours, 4 hours, 8 hours and 24 hours after administration.
Sample analysis: The collected samples were tested using the LC-MS/MS method. The model of the instrument used was API4000.
Pharmacokinetic data analysis: the obtained plasma concentration data were fitted and calculated according to the non-compartmental model method using WinNolin.
In Table 3, CL: clearance. VSS: apparent volume of distribution at steady state. Terminal t1/2: half life. AUClast: area under the curve. MRTINF: average residence time. Tmax: peak time. Cmax: peak concentration. F: bioavailability, refers to the fraction of oral dosage actually reaching the blood circulation.

[4] = molecular target: HER2 (Homo sapiens, UniProt P04626); assay: Caliper Mobility Shift Assay, kinase inhibition; type: biochemical
Text: (§2) The test method used was the Caliper Mobility Shift Assay, the kinases to be tested are BTK, ITK, TEC, EGFR, HER2, HER4, JAK3, HCK, LYN, SRC and SYK. The standard reference compound used was staurosporine.

[5] = molecular target: SYK (Homo sapiens, UniProt P43405); assay: Caliper Mobility Shift Assay, kinase inhibition; type: biochemical
Text: as §2

[6] = molecular target: SRC (Homo sapiens, UniProt P12931); assay: Caliper Mobility Shift Assay, kinase inhibition; type: biochemical
Text: as §2

[7] = molecular target: BTK (Homo sapiens, UniProt Q06187); assay: Caliper Mobility Shift Assay, kinase inhibition; type: biochemical; conditions: for IC50: BTK enzyme activity; for inhibiting effects on BTK kinase (in words): summary of Table 1
Text: as §2

[8] = molecular target: EGFR (Homo sapiens, UniProt P00533); assay: Caliper Mobility Shift Assay, kinase inhibition; type: biochemical
Text: as §2

[9] = molecular target: T1, ITK (Homo sapiens, UniProt Q08881); assay: Caliper Mobility Shift Assay, kinase inhibition; type: biochemical
T1 sequence (Q08881 1-620): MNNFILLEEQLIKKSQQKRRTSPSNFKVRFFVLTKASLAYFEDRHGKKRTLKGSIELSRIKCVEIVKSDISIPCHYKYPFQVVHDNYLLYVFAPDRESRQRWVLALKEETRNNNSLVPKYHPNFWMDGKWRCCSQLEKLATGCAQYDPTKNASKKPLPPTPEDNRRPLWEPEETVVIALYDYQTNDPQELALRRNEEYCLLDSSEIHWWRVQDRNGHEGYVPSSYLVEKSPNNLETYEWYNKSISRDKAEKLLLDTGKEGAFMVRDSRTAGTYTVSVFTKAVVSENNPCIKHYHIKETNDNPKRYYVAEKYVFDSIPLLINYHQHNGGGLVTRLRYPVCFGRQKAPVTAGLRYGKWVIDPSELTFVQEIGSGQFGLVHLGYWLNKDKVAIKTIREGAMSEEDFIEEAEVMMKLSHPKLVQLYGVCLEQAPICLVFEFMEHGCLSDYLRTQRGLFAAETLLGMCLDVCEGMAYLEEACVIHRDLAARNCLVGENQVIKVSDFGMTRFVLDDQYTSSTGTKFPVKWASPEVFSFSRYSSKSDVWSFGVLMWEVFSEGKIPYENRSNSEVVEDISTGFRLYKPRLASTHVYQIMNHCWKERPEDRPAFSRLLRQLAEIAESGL
Text: as §2

[10] = molecular target: HCK (Homo sapiens, UniProt P08631); assay: Caliper Mobility Shift Assay, kinase inhibition; type: biochemical
Text: as §2

[11] = molecular target: LYN (Homo sapiens, UniProt P07948); assay: Caliper Mobility Shift Assay, kinase inhibition; type: biochemical
Text: as §2

[12] = molecular target: HER4 (Homo sapiens, UniProt Q15303); assay: Caliper Mobility Shift Assay, kinase inhibition; type: biochemical
Text: as §2

[13] = molecular target: T2, JAK3 (Homo sapiens, UniProt P52333); assay: Caliper Mobility Shift Assay, kinase inhibition; type: biochemical
T2 sequence (P52333 1-1124): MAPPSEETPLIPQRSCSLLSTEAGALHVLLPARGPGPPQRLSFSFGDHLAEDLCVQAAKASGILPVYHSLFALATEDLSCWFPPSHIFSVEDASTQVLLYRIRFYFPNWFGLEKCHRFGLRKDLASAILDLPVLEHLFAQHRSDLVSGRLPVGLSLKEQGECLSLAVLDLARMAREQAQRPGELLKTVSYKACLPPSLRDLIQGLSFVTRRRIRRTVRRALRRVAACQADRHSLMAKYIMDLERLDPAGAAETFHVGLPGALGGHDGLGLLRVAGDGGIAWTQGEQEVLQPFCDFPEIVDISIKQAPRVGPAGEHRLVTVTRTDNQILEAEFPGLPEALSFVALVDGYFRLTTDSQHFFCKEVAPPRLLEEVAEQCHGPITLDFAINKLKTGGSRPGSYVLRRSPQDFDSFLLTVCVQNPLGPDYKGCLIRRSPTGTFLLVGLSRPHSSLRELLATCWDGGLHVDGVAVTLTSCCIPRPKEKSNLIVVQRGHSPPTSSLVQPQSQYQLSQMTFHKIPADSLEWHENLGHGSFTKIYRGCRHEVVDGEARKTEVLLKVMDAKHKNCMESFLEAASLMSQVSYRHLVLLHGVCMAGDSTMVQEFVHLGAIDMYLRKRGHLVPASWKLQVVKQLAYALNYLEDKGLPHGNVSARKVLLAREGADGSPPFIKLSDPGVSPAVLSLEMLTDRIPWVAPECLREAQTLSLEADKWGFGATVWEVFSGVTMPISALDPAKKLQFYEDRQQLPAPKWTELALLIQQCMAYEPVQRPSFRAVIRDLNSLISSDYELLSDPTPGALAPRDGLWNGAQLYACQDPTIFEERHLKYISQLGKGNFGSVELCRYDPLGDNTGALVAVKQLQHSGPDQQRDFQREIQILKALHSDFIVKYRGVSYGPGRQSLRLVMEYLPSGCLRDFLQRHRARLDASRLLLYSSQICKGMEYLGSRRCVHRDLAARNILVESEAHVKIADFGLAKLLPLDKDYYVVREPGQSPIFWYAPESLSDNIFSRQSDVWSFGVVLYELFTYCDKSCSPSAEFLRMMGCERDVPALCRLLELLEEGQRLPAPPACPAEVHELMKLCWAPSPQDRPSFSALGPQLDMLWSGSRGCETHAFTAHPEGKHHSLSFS
Text: as §2

[14] = molecular target: T3, TEC (Homo sapiens, UniProt P42680); assay: Caliper Mobility Shift Assay, kinase inhibition; type: biochemical
T3 sequence (P42680 1-631): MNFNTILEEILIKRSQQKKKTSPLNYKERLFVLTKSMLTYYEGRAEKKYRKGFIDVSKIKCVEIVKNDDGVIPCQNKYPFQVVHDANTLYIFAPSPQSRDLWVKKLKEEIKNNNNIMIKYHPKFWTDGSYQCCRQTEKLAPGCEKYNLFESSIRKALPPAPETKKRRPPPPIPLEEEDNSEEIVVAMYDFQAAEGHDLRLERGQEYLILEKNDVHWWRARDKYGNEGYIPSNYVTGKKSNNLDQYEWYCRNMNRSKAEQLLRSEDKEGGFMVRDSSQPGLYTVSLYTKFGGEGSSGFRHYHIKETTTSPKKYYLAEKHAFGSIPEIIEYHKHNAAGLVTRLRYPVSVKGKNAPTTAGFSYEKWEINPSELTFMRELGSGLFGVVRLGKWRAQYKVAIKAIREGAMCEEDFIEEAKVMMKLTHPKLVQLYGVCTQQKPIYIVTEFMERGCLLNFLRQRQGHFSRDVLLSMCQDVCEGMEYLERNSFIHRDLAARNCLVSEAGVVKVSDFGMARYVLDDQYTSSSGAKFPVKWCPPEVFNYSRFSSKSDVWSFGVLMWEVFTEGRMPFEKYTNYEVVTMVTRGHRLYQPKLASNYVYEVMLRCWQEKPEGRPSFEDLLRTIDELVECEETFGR
Text: as §2

[15] = system: ITK, TEC, EGFR, HER2, HER4, JAK3, HCK, LYN, SRC and SYK; assay: Kinase selectivity panel, Caliper Mobility Shift Assay; type: biochemical; conditions: summary of Table 2
Experimental: The semi-inhibitory concentration IC50 of the compound (the concentration of the compound required to inhibit the enzyme activity to 50%) is determined by mixing a fixed enzyme with a specific substrate and different concentrations of the test compounds. The test method used was the Caliper Mobility Shift Assay, the kinases to be tested are BTK, ITK, TEC, EGFR, HER2, HER4, JAK3, HCK, LYN, SRC and SYK. The standard reference compound used was staurosporine.
The results of experiments on the inhibitions of ITK, TEC, EGFR, HER2, HER4, JAK3, HCK, LYN, SRC and SYK enzyme activities by the target compound Id were summarized in Table 2. […] This selective inhibiting effect has important values for the treatment of diseases such as rheumatoid arthritis, B cell lymphoma, leukemia, multiple myeloma, allergies, asthma, multiple sclerosis, type I diabetes and systemic lupus erythematosus. The tests of other compounds of the present invention also have similar results.

[16] = disclosed in a conference paper (2nd International Conference on New Concepts in B-cell Malignancies, 2016); cited from earlier work
[17] = 3 mg/kg, intravenous injection, single administration
[18] = 15 mg/kg, oral, single administration

BTK, sequence (Q06187 whole entry): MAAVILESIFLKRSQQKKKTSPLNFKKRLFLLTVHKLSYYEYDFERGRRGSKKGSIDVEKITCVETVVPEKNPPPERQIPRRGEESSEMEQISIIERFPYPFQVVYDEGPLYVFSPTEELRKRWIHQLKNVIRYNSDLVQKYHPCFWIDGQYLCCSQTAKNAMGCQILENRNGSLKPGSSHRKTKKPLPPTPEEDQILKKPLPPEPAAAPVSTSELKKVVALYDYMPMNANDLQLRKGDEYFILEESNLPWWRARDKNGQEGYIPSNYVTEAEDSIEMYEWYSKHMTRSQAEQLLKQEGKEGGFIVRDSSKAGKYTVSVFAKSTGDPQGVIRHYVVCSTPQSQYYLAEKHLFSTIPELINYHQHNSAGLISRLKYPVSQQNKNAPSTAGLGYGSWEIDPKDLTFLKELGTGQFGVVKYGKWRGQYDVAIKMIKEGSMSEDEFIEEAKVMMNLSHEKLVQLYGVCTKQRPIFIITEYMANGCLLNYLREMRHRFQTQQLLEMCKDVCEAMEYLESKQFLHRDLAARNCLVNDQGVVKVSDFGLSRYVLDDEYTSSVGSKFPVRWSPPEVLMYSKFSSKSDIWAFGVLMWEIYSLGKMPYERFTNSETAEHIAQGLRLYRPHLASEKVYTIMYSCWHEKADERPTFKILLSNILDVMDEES
SRC, sequence (P12931 whole entry): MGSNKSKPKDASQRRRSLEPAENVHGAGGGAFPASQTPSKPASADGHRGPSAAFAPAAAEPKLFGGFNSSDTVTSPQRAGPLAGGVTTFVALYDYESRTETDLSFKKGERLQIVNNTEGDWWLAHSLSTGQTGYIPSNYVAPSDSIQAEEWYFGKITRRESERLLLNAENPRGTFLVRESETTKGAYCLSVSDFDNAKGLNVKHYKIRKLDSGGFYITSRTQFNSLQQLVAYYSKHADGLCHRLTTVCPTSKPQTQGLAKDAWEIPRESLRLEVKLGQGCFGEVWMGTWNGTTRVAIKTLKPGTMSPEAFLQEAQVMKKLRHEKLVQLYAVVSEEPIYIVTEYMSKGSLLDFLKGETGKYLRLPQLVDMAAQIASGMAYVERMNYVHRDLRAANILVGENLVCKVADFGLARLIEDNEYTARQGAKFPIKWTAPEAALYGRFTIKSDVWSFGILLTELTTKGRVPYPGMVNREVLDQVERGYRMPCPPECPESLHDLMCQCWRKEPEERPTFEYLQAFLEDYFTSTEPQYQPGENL
LYN, sequence (P07948 whole entry): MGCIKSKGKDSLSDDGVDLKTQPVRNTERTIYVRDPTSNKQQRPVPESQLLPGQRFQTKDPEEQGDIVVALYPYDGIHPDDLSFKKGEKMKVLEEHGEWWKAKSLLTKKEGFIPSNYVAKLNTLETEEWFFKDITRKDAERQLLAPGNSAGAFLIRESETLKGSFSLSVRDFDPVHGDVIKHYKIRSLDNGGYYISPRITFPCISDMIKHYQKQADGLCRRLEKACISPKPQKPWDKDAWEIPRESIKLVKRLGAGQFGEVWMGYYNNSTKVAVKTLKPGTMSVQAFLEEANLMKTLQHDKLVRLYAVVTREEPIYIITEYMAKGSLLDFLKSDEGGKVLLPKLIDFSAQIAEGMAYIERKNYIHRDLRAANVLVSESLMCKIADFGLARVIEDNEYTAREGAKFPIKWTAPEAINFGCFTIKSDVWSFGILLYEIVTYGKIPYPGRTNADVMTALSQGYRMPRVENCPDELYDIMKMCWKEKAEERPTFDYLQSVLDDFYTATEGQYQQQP
HCK, sequence (P08631 whole entry): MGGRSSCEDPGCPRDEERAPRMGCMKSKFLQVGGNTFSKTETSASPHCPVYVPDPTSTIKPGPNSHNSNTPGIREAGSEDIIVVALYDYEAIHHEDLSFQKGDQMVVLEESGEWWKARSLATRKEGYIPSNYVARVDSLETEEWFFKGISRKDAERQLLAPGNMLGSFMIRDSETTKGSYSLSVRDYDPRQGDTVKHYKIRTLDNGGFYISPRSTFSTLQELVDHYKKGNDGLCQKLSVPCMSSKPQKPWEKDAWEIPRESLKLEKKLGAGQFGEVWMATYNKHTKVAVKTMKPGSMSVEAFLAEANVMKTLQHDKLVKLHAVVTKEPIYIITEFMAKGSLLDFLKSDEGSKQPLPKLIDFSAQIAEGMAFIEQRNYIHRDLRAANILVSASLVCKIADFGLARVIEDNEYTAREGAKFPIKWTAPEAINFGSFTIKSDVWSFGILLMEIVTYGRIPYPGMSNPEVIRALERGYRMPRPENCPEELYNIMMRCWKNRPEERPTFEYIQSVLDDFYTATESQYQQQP
EGFR, sequence (P00533 25-1210): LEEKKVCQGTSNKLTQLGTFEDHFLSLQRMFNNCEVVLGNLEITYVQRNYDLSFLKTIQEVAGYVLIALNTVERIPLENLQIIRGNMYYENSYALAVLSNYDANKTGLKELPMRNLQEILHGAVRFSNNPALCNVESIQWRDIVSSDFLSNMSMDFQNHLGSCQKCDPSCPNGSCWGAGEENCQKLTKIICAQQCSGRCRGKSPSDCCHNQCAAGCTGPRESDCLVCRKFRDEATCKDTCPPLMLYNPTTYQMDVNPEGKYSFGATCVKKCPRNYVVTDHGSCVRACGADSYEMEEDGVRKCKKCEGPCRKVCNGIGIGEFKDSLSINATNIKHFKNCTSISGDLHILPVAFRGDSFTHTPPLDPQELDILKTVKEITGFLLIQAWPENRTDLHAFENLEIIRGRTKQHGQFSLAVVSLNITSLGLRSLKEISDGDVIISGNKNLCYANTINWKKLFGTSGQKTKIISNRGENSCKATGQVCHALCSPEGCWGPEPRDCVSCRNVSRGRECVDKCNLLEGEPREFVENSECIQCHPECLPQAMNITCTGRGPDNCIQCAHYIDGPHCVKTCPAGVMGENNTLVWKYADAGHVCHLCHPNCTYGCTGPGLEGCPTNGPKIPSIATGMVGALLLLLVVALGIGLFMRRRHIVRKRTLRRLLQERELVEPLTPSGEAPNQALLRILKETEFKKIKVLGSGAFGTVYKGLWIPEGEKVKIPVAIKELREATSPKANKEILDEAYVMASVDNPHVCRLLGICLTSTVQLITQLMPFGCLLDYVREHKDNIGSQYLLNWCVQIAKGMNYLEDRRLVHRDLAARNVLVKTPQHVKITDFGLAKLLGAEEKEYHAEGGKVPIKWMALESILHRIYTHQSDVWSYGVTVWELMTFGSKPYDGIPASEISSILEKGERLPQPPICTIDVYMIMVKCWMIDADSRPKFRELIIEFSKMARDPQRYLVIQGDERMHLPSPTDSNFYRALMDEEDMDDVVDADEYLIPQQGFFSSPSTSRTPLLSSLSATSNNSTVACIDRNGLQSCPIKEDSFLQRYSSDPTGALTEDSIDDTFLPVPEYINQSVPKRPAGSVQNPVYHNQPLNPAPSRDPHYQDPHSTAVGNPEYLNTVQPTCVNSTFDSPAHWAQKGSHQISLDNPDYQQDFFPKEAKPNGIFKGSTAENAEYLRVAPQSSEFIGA
HER2, sequence (P04626 23-1255): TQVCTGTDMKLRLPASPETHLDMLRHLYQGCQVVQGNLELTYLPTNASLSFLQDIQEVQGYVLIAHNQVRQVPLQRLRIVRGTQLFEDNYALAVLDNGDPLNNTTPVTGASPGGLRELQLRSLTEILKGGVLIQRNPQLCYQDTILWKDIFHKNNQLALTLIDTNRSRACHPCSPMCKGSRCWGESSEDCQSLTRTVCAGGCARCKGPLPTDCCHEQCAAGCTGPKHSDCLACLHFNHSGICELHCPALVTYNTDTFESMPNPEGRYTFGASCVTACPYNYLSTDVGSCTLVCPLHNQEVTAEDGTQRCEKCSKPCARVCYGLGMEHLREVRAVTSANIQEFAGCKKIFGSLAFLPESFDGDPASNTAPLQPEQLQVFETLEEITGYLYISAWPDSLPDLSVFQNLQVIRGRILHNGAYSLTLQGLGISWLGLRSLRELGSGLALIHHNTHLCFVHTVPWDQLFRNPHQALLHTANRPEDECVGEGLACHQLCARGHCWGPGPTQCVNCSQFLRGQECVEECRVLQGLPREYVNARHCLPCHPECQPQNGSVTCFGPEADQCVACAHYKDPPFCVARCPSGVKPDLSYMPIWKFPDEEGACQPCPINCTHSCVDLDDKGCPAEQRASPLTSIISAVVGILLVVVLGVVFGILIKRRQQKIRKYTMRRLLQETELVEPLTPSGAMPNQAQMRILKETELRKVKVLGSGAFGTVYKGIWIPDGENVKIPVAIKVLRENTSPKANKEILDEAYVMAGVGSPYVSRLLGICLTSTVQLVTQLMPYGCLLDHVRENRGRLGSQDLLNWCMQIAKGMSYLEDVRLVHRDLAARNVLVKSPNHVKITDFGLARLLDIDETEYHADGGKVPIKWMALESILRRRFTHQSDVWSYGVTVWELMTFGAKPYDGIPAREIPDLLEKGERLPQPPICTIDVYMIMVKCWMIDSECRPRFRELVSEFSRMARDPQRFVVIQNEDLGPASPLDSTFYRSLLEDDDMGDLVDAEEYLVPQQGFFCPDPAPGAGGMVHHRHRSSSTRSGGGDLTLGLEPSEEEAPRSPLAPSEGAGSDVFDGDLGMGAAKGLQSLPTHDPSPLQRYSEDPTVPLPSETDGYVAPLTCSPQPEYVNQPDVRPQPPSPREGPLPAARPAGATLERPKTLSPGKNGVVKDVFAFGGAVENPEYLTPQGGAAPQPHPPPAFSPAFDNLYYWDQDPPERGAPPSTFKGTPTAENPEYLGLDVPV

SMILES | half-life [1] [min] | CLint scaled [1] [mL/min/kg] | half-life [2] [min] | CLint scaled [2] [mL/min/kg] | IC50 [5] [µM] | IC50 [6] [µM] | IC50 [7] [µM] | inhibiting effects on BTK kinase (in words) [7] | IC50 [10] [µM] | IC50 [11] [µM] | further results
CC#CC(=O)N1CCC[C@H]1c1nc(-c2ccc(Oc3ccccc3)cc2)c2c(N)nccn12 [Compound of formula Id] | 8.26 | 661 | 3.13 | 555 | > 1 | > 1 | 0.0048 | very strong inhibiting effects | > 1 | > 1 | metabolism rate relative to acalabrutinib (in words) ([1]; mouse or human liver microsomes): metabolized faster than acalabrutinib; AUC(0-t) [3, 17]: 661 ng·h/mL; clearance ([3]; 3 mg/kg, intravenous injection, single administration, read-out: CL (clearance) (converted)): 77 mL/min/kg; MRT inf ([3]; 3 mg/kg, intravenous injection, single administration, read-out: MRTINF (average residence time)): 17.8 min; half-life [3, 17]: 17.2 min; Vd ([3]; 3 mg/kg, intravenous injection, single administration, read-out: Vss (apparent volume of distribution at steady state)): 1.3 L/kg; bioavailability ([3]; 15 mg/kg oral vs 3 mg/kg intravenous, read-out: F (bioavailability)): 56.4%; AUC(0-t) [3, 18]: 1880 ng·h/mL; Cmax ([3]; 15 mg/kg, oral, single administration, read-out: Cmax (peak concentration)): 848 ng/mL; half-life [3, 18]: 98.4 min; Tmax ([3]; 15 mg/kg, oral, single administration, read-out: Tmax (peak time)): 15 min; IC50 [4]: > 1 µM; IC50 [8]: > 1 µM; IC50 [9]: > 1 µM; IC50 [12]: > 1 µM; IC50 [13]: > 1 µM; IC50 [14]: 0.04 µM; selective inhibiting activity (in words) [15]: good
CC#CC(=O)N1CCC[C@H]1c1nc(-c2ccc(Oc3ccccn3)cc2)c2c(N)nccn12 [Compound of formula Ic] |  |  |  |  |  |  | 0.577 | strong inhibiting effects |  |  | 
CC#CC(=O)N1CCC[C@H]1c1nc(-c2ccc(C(=O)Nc3ccccn3)cc2)c2c(N)nccn12 [Acalabrutinib, acalabrutinib, reference compound] | 23.3 | 234 | 11.9 | 146 | > 1 | > 1 |  |  | > 1 | > 1 | half life [16]: 67.8 min
CC#CC(=O)N1CCC[C@H]1c1nc(-c2ccc(NC(=O)c3ccccn3)cc2)c2c(N)nccn12 [Compound of formula Ia] |  |  |  |  |  |  | 0.415 | strong inhibiting effects |  |  | 
CC#CC(=O)N1CCC[C@H]1c1nc(-c2ccc(C(=O)Nc3ccccn3)c(C)c2)c2c(N)nccn12 [Compound of formula Ib] |  |  |  |  |  |  | 0.05 | very strong inhibiting effects |  |  | 
